Assay results from ChEMBL document CHEMBL1141537, “Design and synthesis of dihydroindazolo[5,4-a]pyrrolo[3,4-c]carbazole oximes as potent dual inhibitors of TIE-2 and VEGF-R2 receptor tyrosine kinases” (Bioorg Med Chem Lett, 2008).

Experiments:
Angiopoietin-1 receptor = Angiopoietin-1 receptor (Homo sapiens, UniProt Q02763); test: Inhibition of human recombinant TIE2 by HTRF assay
[1] = molecular target: Vascular endothelial growth factor receptor 3 (Homo sapiens, UniProt P35916); test: Inhibition of VEGFR3
A-375 [2] = test: Antitumor activity against human A375 cells xenografted mouse assessed as tumor growth inhibition at 10 mg/kg, po bid relative to control; assay type: functional; design: scale not given: the % may be the effect or the level left
Mus musculus = test: Toxicity in A375 cells xenografted mouse melanoma model assessed as mortality; assay type: organism-based, A-375; conditions: in vivo
[3] = Half life in rat at 1 mg/kg, iv; assay type: ADME, organism-based; design: dose 1 mg/kg, route intravenous; conditions: in vivo
[4] = Cmax in rat at 5 mg/kg, po; assay type: ADME, organism-based; design: dose 5 mg/kg, route oral; conditions: in vivo
Insulin receptor = Insulin receptor (Homo sapiens, UniProt P06213); test: Inhibition of IR
[5] = molecular target: Vascular endothelial growth factor receptor 1 (Homo sapiens, UniProt P17948); test: Inhibition of VEGFR1
[6] = Clearance in rat at 1 mg/kg, iv; assay type: ADME, organism-based; design: dose 1 mg/kg, route intravenous; conditions: in vivo
Rattus norvegicus = organism: Rattus norvegicus; test: Ex vivo antiangiogenic activity in rat aortic ring explant assessed as inhibition of microvessel outgrowth after 10 days; assay type: functional; conditions: Aorta, 240 h
[7] = AUC (0 to infinity) in rat at 5 mg/kg, po; assay type: ADME, organism-based; design: time infinity, dose 5 mg/kg, route oral; conditions: plasma
[8] = AUC (0 to infinity) in rat at 1 mg/kg, iv; assay type: ADME, organism-based; design: time infinity, dose 1 mg/kg, route intravenous; conditions: plasma
[9] = Volume of distribution in rat at 1 mg/kg, iv; assay type: ADME, organism-based; design: dose 1 mg/kg, route intravenous; conditions: in vivo
A-375 [10] = test: Antitumor activity against human A375 cells xenografted mouse assessed as partial tumor regression at 10 mg/kg, po bid relative to control; assay type: functional
A-375 [11] = test: Cytotoxicity against human A375 cells; assay type: functional, cell-based
[12] = molecular target: Epidermal growth factor receptor (Homo sapiens, UniProt P00533); test: Inhibition of EGFR
Sequence of Epidermal growth factor receptor (P00533 whole entry): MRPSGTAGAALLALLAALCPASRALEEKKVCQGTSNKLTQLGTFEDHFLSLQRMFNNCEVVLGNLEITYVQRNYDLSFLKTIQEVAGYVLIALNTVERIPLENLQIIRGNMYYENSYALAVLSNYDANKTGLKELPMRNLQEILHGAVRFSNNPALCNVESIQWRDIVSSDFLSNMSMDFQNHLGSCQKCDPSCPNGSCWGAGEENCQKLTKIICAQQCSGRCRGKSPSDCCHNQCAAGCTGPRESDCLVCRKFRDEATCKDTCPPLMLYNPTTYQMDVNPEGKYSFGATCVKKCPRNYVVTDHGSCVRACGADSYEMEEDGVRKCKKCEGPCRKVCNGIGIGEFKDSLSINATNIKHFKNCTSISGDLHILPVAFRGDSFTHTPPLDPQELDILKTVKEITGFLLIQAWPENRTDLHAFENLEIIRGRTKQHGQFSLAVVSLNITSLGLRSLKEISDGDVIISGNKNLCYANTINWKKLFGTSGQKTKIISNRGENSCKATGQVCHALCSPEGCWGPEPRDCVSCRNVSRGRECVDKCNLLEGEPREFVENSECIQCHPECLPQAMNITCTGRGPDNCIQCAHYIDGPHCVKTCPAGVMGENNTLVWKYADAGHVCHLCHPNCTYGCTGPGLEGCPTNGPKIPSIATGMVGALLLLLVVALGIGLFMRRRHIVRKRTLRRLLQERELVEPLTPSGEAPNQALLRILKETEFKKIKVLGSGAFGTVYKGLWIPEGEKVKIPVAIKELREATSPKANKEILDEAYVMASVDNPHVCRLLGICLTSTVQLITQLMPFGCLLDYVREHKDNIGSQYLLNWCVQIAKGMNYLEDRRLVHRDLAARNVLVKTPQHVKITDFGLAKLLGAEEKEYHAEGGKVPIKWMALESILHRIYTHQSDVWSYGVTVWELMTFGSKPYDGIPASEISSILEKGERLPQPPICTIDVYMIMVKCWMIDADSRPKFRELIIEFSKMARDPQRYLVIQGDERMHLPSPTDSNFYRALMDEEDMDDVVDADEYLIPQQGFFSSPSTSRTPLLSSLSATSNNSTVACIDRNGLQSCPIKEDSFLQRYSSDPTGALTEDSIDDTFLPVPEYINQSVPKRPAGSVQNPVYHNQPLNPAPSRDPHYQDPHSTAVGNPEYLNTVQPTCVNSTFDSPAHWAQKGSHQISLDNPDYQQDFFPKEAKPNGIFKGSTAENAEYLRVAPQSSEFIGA

[13] = molecular target: Proto-oncogene tyrosine-protein kinase Src (Homo sapiens, UniProt P12931); test: Inhibition of c-src
Sequence of Proto-oncogene tyrosine-protein kinase Src (P12931 2-536 limits assumed): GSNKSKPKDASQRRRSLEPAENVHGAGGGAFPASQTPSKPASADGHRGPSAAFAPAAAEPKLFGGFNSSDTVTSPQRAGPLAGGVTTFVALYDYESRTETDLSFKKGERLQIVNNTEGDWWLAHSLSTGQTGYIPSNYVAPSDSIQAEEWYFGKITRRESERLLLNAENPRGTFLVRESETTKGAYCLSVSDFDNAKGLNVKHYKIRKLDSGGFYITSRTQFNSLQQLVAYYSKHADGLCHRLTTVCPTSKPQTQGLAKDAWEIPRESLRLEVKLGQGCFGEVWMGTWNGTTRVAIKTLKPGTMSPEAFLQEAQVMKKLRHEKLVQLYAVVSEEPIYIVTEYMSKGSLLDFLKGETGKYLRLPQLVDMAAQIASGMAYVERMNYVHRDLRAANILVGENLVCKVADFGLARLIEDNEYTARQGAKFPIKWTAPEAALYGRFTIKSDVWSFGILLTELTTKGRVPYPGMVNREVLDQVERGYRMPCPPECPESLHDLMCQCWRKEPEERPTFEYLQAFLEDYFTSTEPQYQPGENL

HUVEC [14] = test: Cytotoxicity against HUVEC cells; assay type: cell-based; conditions: human
[15] = Oral bioavailability in rat at 5 mg/kg; assay type: ADME, organism-based; conditions: in vivo
HUVEC [16] = test: Inhibition of VEGF-induced HUVEC cells capillary tube formation relative to control; assay type: functional, cell-based; conditions: Homo sapiens
[17] = molecular target: Vascular endothelial growth factor receptor 2 (Homo sapiens, UniProt P35968); test: Inhibition of human recombinant VEGFR2 by HTRF assay
Sequence of Vascular endothelial growth factor receptor 2 (P35968 whole entry): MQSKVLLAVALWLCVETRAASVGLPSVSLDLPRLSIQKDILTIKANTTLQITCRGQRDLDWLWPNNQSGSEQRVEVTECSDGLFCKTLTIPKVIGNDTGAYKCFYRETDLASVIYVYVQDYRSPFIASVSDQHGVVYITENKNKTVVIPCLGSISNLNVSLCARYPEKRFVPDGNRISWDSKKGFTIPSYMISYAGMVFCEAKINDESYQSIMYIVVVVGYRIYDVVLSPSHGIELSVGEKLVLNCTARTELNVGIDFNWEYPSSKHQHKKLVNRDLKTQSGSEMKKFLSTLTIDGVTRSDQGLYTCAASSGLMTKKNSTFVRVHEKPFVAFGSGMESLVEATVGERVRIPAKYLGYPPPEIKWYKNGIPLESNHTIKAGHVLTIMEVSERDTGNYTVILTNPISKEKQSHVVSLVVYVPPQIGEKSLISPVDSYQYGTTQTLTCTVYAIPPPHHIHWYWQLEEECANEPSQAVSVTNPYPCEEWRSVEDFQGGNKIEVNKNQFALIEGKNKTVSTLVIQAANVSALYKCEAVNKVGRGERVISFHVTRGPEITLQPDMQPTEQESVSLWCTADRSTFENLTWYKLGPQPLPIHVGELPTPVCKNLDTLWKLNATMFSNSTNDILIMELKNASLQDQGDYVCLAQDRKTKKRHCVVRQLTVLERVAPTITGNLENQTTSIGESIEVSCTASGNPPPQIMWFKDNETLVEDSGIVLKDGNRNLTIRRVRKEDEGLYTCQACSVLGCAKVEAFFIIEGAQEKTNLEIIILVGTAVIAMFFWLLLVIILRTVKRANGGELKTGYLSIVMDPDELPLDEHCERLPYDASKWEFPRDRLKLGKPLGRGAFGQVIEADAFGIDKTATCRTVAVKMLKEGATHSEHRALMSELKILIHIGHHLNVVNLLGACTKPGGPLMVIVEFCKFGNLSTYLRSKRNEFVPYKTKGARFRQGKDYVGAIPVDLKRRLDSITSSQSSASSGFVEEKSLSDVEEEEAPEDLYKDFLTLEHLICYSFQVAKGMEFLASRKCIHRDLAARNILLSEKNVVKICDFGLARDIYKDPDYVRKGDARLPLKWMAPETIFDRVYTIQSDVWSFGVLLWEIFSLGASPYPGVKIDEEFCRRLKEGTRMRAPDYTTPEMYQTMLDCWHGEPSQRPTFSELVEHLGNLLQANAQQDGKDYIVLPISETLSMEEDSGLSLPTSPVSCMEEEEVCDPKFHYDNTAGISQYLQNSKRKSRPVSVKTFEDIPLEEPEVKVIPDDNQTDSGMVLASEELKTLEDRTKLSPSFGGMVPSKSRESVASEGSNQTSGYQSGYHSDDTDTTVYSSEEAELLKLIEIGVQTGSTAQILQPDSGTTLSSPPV

[18] = Half life in rat at 5 mg/kg, po; assay type: ADME, organism-based; design: dose 5 mg/kg, route oral; conditions: in vivo

Sequence of Angiopoietin-1 receptor (Q02763 whole entry): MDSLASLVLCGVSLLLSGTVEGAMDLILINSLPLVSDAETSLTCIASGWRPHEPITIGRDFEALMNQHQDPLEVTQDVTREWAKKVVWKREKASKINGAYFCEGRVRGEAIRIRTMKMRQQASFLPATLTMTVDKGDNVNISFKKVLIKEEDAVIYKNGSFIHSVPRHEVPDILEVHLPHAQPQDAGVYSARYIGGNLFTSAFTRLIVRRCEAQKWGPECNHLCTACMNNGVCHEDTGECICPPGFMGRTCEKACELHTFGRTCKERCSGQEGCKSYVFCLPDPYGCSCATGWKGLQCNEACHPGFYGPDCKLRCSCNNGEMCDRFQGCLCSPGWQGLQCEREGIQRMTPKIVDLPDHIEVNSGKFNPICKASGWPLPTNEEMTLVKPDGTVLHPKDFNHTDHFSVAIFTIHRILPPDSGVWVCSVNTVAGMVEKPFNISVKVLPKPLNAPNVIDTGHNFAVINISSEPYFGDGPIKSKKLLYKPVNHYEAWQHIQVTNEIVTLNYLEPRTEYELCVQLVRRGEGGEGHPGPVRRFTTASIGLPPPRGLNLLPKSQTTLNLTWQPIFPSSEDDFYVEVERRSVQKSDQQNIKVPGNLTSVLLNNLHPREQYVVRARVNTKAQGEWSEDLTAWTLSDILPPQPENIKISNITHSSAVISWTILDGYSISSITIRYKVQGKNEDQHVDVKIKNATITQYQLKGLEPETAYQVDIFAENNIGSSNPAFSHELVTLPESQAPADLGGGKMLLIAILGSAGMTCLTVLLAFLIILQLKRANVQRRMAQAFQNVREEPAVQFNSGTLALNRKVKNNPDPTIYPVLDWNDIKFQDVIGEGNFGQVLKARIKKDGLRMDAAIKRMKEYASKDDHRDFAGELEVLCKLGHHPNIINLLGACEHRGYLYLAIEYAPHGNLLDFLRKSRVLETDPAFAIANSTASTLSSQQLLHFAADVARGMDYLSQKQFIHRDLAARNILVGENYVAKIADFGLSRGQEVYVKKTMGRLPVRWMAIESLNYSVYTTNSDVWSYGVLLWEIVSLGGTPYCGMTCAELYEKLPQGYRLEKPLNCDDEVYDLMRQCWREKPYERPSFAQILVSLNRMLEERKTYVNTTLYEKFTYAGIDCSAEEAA

Which IC50 (Angiopoietin-1 receptor) does the source give for C/C(=N\OC(C)(C)C)c1ccc2[nH]c3c4c(c5c(c3c2c1)CNC5=O)-c1cn(C)nc1CC4 here?
The IC50 was 0.093 µM.

With CO/N=C(\C)c1ccc2c(c1)c1c3c(c4c(c1n2C)CCc1nn(C)cc1-4)C(=O)NC3 as the compound, how does the IC50 (Angiopoietin-1 receptor) read?
The IC50 was 0.347 µM.

Which IC50 (Angiopoietin-1 receptor) does the source give for CCn1c2ccc(/C(C)=N/OC)cc2c2c3c(c4c(c21)CCc1nn(C)cc1-4)C(=O)NC3 here?
Its IC50 is 0.3 µM.

With CO/N=C/c1ccc2[nH]c3c4c(c5c(c3c2c1)CNC5=O)-c1cn(C)nc1CC4 as the compound, how does the IC50 (Angiopoietin-1 receptor) read?
Its IC50 is 0.148 µM.

Which IC50 (Angiopoietin-1 receptor) does the source give for CCO/N=C/c1ccc2[nH]c3c4c(c5c(c3c2c1)CNC5=O)-c1cn(C)nc1CC4 here?
The IC50 was 0.264 µM.

For CO/N=C(\C)c1ccc2[nH]c3c4c(c5c(c3c2c1)CNC5=O)-c1cn(C)nc1CC4, which IC50 (Angiopoietin-1 receptor) is on record?
Its IC50 is 0.071 µM.

For CO/N=C(/c1ccc2[nH]c3c4c(c5c(c3c2c1)CNC5=O)-c1cn(C)nc1CC4)C(C)C, which IC50 (Angiopoietin-1 receptor) is on record?
Its IC50 is 0.264 µM.

Which IC50 (Angiopoietin-1 receptor) does the source give for CCO/N=C(/c1ccc2[nH]c3c4c(c5c(c3c2c1)CNC5=O)-c1cn(C)nc1CC4)C(C)C here?
Its IC50 is 0.092 µM.

For C/C(=N\OC(C)C)c1ccc2[nH]c3c4c(c5c(c3c2c1)CNC5=O)-c1cn(C)nc1CC4, which IC50 (Angiopoietin-1 receptor) is on record?
The IC50 was 0.028 µM.

Which IC50 (Angiopoietin-1 receptor) does the source give for CCCn1c2ccc(/C(C)=N/OC)cc2c2c3c(c4c(c21)CCc1nn(C)cc1-4)C(=O)NC3 here?
The IC50 was 0.03 µM.

Which IC50 [1] does the source give for CO/N=C(\C)c1ccc2c(c1)c1c3c(c4c(c1n2CC(C)C)CCc1nn(C)cc1-4)C(=O)NC3 here?
Its IC50 is 0.01 µM.

What about the Activity (A-375 [2]) of the same compound?
Its Activity is 80%.

What about the Activity (Mus musculus) of the same compound?
Its Activity is “Non-toxic”.

What about the half-life [3] of the same compound?
Its half-life is 1.4 h.

What about the Cmax [4] of the same compound?
The Cmax was 874 ng/mL.

What about the IC50 (Insulin receptor) of the same compound?
The IC50 was greater than 1 µM.

What about the IC50 [5] of the same compound?
The IC50 was 0.008 µM.

What about the clearance [6] of the same compound?
The clearance was 6.5 mL/min/kg.

And the EC50 (Rattus norvegicus)?
The EC50 was 0.003 µM.

And the AUC(0-inf) [7]?
Its AUC(0-inf) is 9060 ng·h/mL.

What about the AUC(0-inf) [8] of the same compound?
Its AUC(0-inf) is 2760 ng·h/mL.

And the Vd [9]?
The Vd was 0.8 L/kg.

And the Activity (A-375 [10])?
The Activity was 38%.

What about the EC50 (A-375 [11]) of the same compound?
Its EC50 is 0.07 µM.

What about the IC50 [12] of the same compound?
The IC50 was greater than 1 µM.

What about the IC50 [13] of the same compound?
The IC50 was 0.043 µM.

And the Activity (HUVEC [14])?
The Activity was “Non-toxic”.

And the bioavailability [15]?
Its bioavailability is 66%.

What about the EC50 (HUVEC [16]) of the same compound?
The EC50 was 0.001 µM.

What about the IC50 [17] of the same compound?
The IC50 was 0.007 µM.

And the half-life [18]?
Its half-life is 6.5 h.

What about the IC50 (Angiopoietin-1 receptor) of the same compound?
Its IC50 is 0.03 µM.

For C/C(=N\OCC(C)C)c1ccc2c(c1)c1c3c(c4c(c1n2CC(C)C)CCc1nn(C)cc1-4)C(=O)NC3, which IC50 (Angiopoietin-1 receptor) is on record?
The IC50 was 0.023 µM.

With C/C(=N\OCC(C)C)c1ccc2[nH]c3c4c(c5c(c3c2c1)CNC5=O)-c1cn(C)nc1CC4 as the compound, how does the IC50 (Angiopoietin-1 receptor) read?
Its IC50 is 0.01 µM.

For C/C(=N\OCC(C)C)c1ccc2c(c1)c1c3c(c4c(c1n2C(C)C)CCc1nn(C)cc1-4)C(=O)NC3, which IC50 (Angiopoietin-1 receptor) is on record?
Its IC50 is 0.046 µM.

For Cn1cc2c(n1)CCc1c-2c2c(c3c1[nH]c1ccccc13)CNC2=O, which IC50 (Angiopoietin-1 receptor) is on record?
Its IC50 is 1.3 µM.

For COc1ccc(-c2oc3ncnc(N)c3c2-c2ccc(NC(=O)Nc3c(F)cccc3C(F)(F)F)cc2)cc1, which IC50 (Angiopoietin-1 receptor) is on record?
The IC50 was 0.002 µM.

For CO/N=C(\C)c1ccc2c(c1)c1c3c(c4c(c1n2C(C)C)CCc1nn(C)cc1-4)C(=O)NC3, which IC50 (Angiopoietin-1 receptor) is on record?
Its IC50 is 0.097 µM.

Which results are given for CCO/N=C(\C)c1ccc2c(c1)c1c3c(c4c(c1n2C(C)C)CCc1nn(C)cc1-4)C(=O)NC3?
half-life [3]: 2 h; Cmax [4]: 637 ng/mL; IC50 (Insulin receptor): > 1 µM; clearance [6]: 7.4 mL/min/kg; AUC(0-inf) [7]: 3610 ng·h/mL; AUC(0-inf) [8]: 2300 ng·h/mL; Vd [9]: 1.3 L/kg; IC50 [12]: > 1 µM; IC50 [13]: 0.014 µM; bioavailability [15]: 31%; IC50 [17]: 0.004 µM; half-life [18]: 3.2 h; IC50 (Angiopoietin-1 receptor): 0.026 µM

With CCn1c2ccc(/C(C)=N/OCC(C)C)cc2c2c3c(c4c(c21)CCc1nn(C)cc1-4)C(=O)NC3 as the compound, how does the IC50 (Angiopoietin-1 receptor) read?
The IC50 was 0.045 µM.

With CCCCn1c2ccc(/C(C)=N/OC)cc2c2c3c(c4c(c21)CCc1nn(C)cc1-4)C(=O)NC3 as the compound, how does the IC50 (Angiopoietin-1 receptor) read?
The IC50 was 0.108 µM.

Which IC50 (Angiopoietin-1 receptor) does the source give for C/C(=N\OC(C)C)c1ccc2c(c1)c1c3c(c4c(c1n2CC(C)C)CCc1nn(C)cc1-4)C(=O)NC3 here?
The IC50 was 0.052 µM.

Which IC50 (Angiopoietin-1 receptor) does the source give for C/C(=N\O)c1ccc2[nH]c3c4c(c5c(c3c2c1)CNC5=O)-c1cn(C)nc1CC4 here?
The IC50 was 0.044 µM.

With CCO/N=C(\C)c1ccc2[nH]c3c4c(c5c(c3c2c1)CNC5=O)-c1cn(C)nc1CC4 as the compound, how does the IC50 (Angiopoietin-1 receptor) read?
Its IC50 is 0.023 µM.

Which IC50 (Angiopoietin-1 receptor) does the source give for CCO/N=C(\C)c1ccc2c(c1)c1c3c(c4c(c1n2CC(C)C)CCc1nn(C)cc1-4)C(=O)NC3 here?
The IC50 was 0.025 µM.

With C/C(=N\OC(C)C)c1ccc2c(c1)c1c3c(c4c(c1n2C(C)C)CCc1nn(C)cc1-4)C(=O)NC3 as the compound, how does the IC50 (Angiopoietin-1 receptor) read?
Its IC50 is 0.066 µM.
